Assay results taken from the NIST ThermoML archive (doi:10.1016/j.tca.2004.12.008).
Numbers after ± are expanded uncertainties.

Experiment: mn = molality of the nth substance listed, in mol/kg
Conditions: 101.3 kPa, Liquid, Vibrating tube method

NCC(=O)NCC(=O)O [glycylglycine] + O
mass density [kg/m3]
Conditions | m1 = 0.0949 | m1 = 0.2052 | m1 = 0.2997 | m1 = 0.4062 | m1 = 0.5069
298.15 K | 1002.54 ± 0.07 | 1008.5 ± 0.07 | 1013.49 ± 0.08 | 1018.99 ± 0.09 | 1024.06 ± 0.1
308.15 K | 999.21 ± 0.07 | 1005.1 ± 0.07 | 1010.03 ± 0.08 | 1015.47 ± 0.09 | 1020.5 ± 0.1
